Tested on: T1, GABAA receptor α1β2γ2
T1 construct: gene GABRA1; α1β2γ2 heteromer transiently expressed in HEK293 cells; with GABAA receptor β2 and γ2 subunits
Assay: whole-cell patch clamp, […] co-applied with […] GABA ([…] of GABA current, P < […])
Type: cell-based

With `C=CC(C)(O)CCC=C(C)C` (stereo not shown) [Linalool, 3,7-dimethyl-1,6-octadiene-3-ol] the “% of GABA current at 2 mM” value was 160 ± 14 % of GABA current at 2 mM.
